From article PMC5936909, “Identification of potent chromone embedded [1,2,3]-triazoles as novel anti-tubercular agents” (Royal Society Open Science, 2018) come the findings set out here.

The subject of data set [1] is Mycobacterium tuberculosis H37Rv (ATCC27294). The experiment in a line: in vitro anti-tubercular activity, MABA assay. The data set is classed as cell-based.
Data set [2] concerns RAW 264.7 cells. Nature of the data set: in vitro cytotoxicity, MTT assay. Conditions: at 50 µg ml^−1, RAW 264.7 cells. On the technique in general: Tetrazolium assays rely on reduction of a dye to a coloured formazan, in cell work by metabolically active cells.
[3] abbreviates: M. tuberculosis H37Rv, MABA, lowest concentration with complete inhibition of growth.
Where [4] appears, read: Mycobacterium tuberculosis, M. tuberculosis H37Rv, MABA, lowest concentration with complete inhibition of growth, read-out: MIC.
Setting [5] is: Mycobacterium tuberculosis, supplement page S73 correlation table, read-out: MIC.
The mark [6] stands for this setting: Mycobacterium tuberculosis, supplement page S72, standard drugs, read-out: MIC.

Read-outs that look alike come from different tables or passages of the source.

One may read the MIC as the smallest concentration in the dilution series that meets the test's criterion for growth inhibition. Turning to “2-((1H-1,2,3-triazol-1-yl)methyl)-4H-chromen-4-one [6t]”, the MIC in data set [1] (setting [3]) is 50 µg/mL. In addition, in data set [2], the “cytotoxicity (percentage inhibition of cells)” value was 30.12%.

Regarding “3-((4-(4-propylphenyl)-1H-1,2,3-triazol-1-yl)methyl)-4H-chromen-4-one [6d]”, in data set [1] (setting [3]), the MIC came to 50 µg/mL. Also, the “cytotoxicity (percentage inhibition of cells)” value in data set [2] is recorded as 20.60%.

For orientation: melting point means the temperature of the solid-liquid transition. Regarding `O=c1c(Cn2cc(-c3ccccc3)nn2)coc2ccccc12` [6a, 3-((4-phenyl-1H-1,2,3-triazol-1-yl)methyl)-4H-chromen-4-one], the melting point fell in the range of 154 to 155 °C. Moreover, in data set [1] (setting [4]), the MIC worked out at 25 µg/mL. In data set [2], the “cytotoxicity (percentage inhibition of cells)” value is 12.86%.

For the compound `Cc1ccc(-c2cn(Cc3coc4ccccc4c3=O)nn2)cc1` [6b, 3-((4-(p-tolyl)-1H-1,2,3-triazol-1-yl)methyl)-4H-chromen-4-one], the melting point is 170 to 172 °C. In data set [1] (setting [4]), the MIC amounted to 25 µg/mL. In addition, the “cytotoxicity (percentage inhibition of cells)” value in data set [2] was determined as 26.82%.

Take `CCc1ccc(-c2cn(Cc3coc4ccccc4c3=O)nn2)cc1` [6c, 3-((4-(4-ethylphenyl)-1H-1,2,3-triazol-1-yl)methyl)-4H-chromen-4-one]: in data set [1] (setting [4]), the MIC worked out at 25 µg/mL. For the same compound, the “cytotoxicity (percentage inhibition of cells)” value in data set [2] is 16.12%.

Compound `CCCCCc1ccc(-c2cn(Cc3coc4ccccc4c3=O)nn2)cc1` [6e, 3-((4-(4-pentylphenyl)-1H-1,2,3-triazol-1-yl)methyl)-4H-chromen-4-one] displayed a melting point of 147 to 148 °C. In data set [1] (setting [4]), the MIC is 25 µg/mL. Besides, in data set [2], the “cytotoxicity (percentage inhibition of cells)” value is recorded as 20.12%.

Compound `CC(C)(C)c1ccc(-c2cn(Cc3coc4ccccc4c3=O)nn2)cc1` [6f, 3-((4-(4-(tert-butyl)phenyl)-1H-1,2,3-triazol-1-yl)methyl)-4H-chromen-4-one] yielded a melting point of 218 to 219 °C. For the same compound, the MIC in data set [1] (setting [3]) came out at 3.125 µg/mL. In data set [1] (setting [5]), the minimum inhibitory concentration (MIC) is 3.12 µg/mL. In data set [2], the “cytotoxicity (percentage inhibition of cells)” value was found to be 20.12%.

`COc1ccc(-c2cn(Cc3coc4ccccc4c3=O)nn2)cc1` [6g, 3-((4-(4-methoxyphenyl)-1H-1,2,3-triazol-1-yl)methyl)-4H-chromen-4-one] registered a melting point of 170 to 171 °C. This compound also displayed a minimal inhibitory concentration (MIC) in data set [1] (setting [3]) of 6.25 µg/mL. In data set [1] (setting [5]), the minimal inhibitory concentration (MIC) came out at 6.25 µg/mL. Besides, the “cytotoxicity (percentage inhibition of cells)” value in data set [2] came to 28.40%.

As for `CCCCCOc1ccc(-c2cn(Cc3coc4ccccc4c3=O)nn2)cc1` [6h, 3-((4-(4-(pentyloxy)phenyl)-1H-1,2,3-triazol-1-yl)methyl)-4H-chromen-4-one], the melting point is 154 to 155 °C. The compound further displayed a minimum inhibitory concentration (MIC) in data set [1] (setting [3]) of 3.125 µg/mL. Besides, the MIC in data set [1] (setting [5]) was found to be 3.12 µg/mL. Also, the “cytotoxicity (percentage inhibition of cells)” value in data set [2] is reported as 18.68%.

Compound `Cc1cccc(-c2cn(Cc3coc4ccccc4c3=O)nn2)c1` [6i, 3-((4-(m-tolyl)-1H-1,2,3-triazol-1-yl)methyl)-4H-chromen-4-one] returned a melting point of 124 to 125 °C. Besides, the MIC in data set [1] (setting [4]) was determined as 25 µg/mL. The “cytotoxicity (percentage inhibition of cells)” value in data set [2] is 26.82%.

`COc1ccc(-c2cn(Cc3coc4ccccc4c3=O)nn2)c(C)c1` [6j, 3-((4-(4-methoxy-2-methylphenyl)-1H-1,2,3-triazol-1-yl)methyl)-4H-chromen-4-one] displayed a melting point of 172 to 173 °C. For the same compound, the minimum inhibitory concentration (MIC) in data set [1] (setting [4]) amounted to 50 µg/mL. Besides, the “cytotoxicity (percentage inhibition of cells)” value in data set [2] stood at 30.34%.

For the compound `O=c1c(Cn2cc(-c3cccc4ccccc34)nn2)coc2ccccc12` [6k, 3-((4-(naphthalen-1-yl)-1H-1,2,3-triazol-1-yl)methyl)-4H-chromen-4-one], the melting point fell in the range of 154 to 155 °C. Also, the MIC in data set [1] (setting [4]) is 50 µg/mL. Also, in data set [2], the “cytotoxicity (percentage inhibition of cells)” value is listed as 26.12%.

The compound `O=c1c(Cn2cc(-c3ccccn3)nn2)coc2ccccc12` [6l, 3-((4-(pyridin-2-yl)-1H-1,2,3-triazol-1-yl)methyl)-4H-chromen-4-one] gave a melting point of 175 to 176 °C. In addition, the MIC in data set [1] (setting [4]) was 50 µg/mL. Moreover, the “cytotoxicity (percentage inhibition of cells)” value in data set [2] amounted to 30.60%.

`CCCCc1cn(Cc2coc3ccccc3c2=O)nn1` [6m, 3-((4-butyl-1H-1,2,3-triazol-1-yl)methyl)-4H-chromen-4-one]: the melting point lay in the range of 87 to 88 °C. Moreover, the MIC in data set [1] (setting [3]) was 6.25 µg/mL. For the same compound, the MIC in data set [1] (setting [5]) amounted to 6.25 µg/mL. Further, the “cytotoxicity (percentage inhibition of cells)” value in data set [2] is listed as 36.82%.

`CCCCCCc1cn(Cc2coc3ccccc3c2=O)nn1` [6n, 3-((4-hexyl-1H-1,2,3-triazol-1-yl)methyl)-4H-chromen-4-one] registered a melting point of 84 to 85 °C. Further, the MIC in data set [1] (setting [4]) was 50 µg/mL. In data set [2], the “cytotoxicity (percentage inhibition of cells)” value was 23.74%.

The compound `O=c1c(Cn2cc(C3CCCC3)nn2)coc2ccccc12` [6o, 3-((4-cyclopentyl-1H-1,2,3-triazol-1-yl)methyl)-4H-chromen-4-one] yielded a melting point of 157 to 158 °C. The compound further yielded a minimal inhibitory concentration (MIC) in data set [1] (setting [3]) of 3.125 µg/mL. Moreover, the minimal inhibitory concentration (MIC) in data set [1] (setting [5]) was 3.12 µg/mL. Also, the “cytotoxicity (percentage inhibition of cells)” value in data set [2] was found to be 18.42%.

In turn, `O=c1c(Cn2cc(C3CCCCC3)nn2)coc2ccccc12` [6p, 3-((4-cyclohexyl-1H-1,2,3-triazol-1-yl)methyl)-4H-chromen-4-one] registered a melting point of 145 to 146 °C. This compound had an MIC in data set [1] (setting [3]) of 12.5 µg/mL. Also, the minimal inhibitory concentration (MIC) in data set [1] (setting [5]) was 12.5 µg/mL. Besides, the “cytotoxicity (percentage inhibition of cells)” value in data set [2] is listed as 20.12%.

For the compound `O=c1c(Cn2cc(CC3CCCCC3)nn2)coc2ccccc12` [6q, 3-((4-(cyclohexylmethyl)-1H-1,2,3-triazol-1-yl)methyl)-4H-chromen-4-one], the melting point lay within 133 to 134 °C. Further, the minimal inhibitory concentration (MIC) in data set [1] (setting [4]) turned out to be 25 µg/mL. Further, the “cytotoxicity (percentage inhibition of cells)” value in data set [2] turned out to be 28.62%.

Regarding `O=c1c(Cn2cc(C3(O)c4ccccc4-c4ccccc43)nn2)coc2ccccc12` [6r, 3-((4-(9-hydroxy-9H-fluoren-9-yl)-1H-1,2,3-triazol-1-yl)methyl)-4H-chromen-4-one], the melting point was 239 to 240 °C. Further, in data set [1] (setting [4]), the MIC stood at 50 µg/mL. The “cytotoxicity (percentage inhibition of cells)” value in data set [2] is given as 30.60%.

As for `O=c1c(Cn2cc(CCCCCCCCCCCCCCCO)nn2)coc2ccccc12` [6s, 3-((4-(15-hydroxypentadecyl)-1H-1,2,3-triazol-1-yl)methyl)-4H-chromen-4-one], the melting point lay in the range of 123 to 124 °C. In data set [1] (setting [3]), this compound registered a minimum inhibitory concentration (MIC) of 1.56 µg/mL. The minimal inhibitory concentration (MIC) in data set [1] (setting [5]) was determined as 1.56 µg/mL. Also, in data set [1] (ratio of MIC values), the “times more active than the standard drug ethambutol” value came out at 4.8 times. Further, the “cytotoxicity (percentage inhibition of cells)” value in data set [2] was determined as 24.68%.

As for `CO[C@H]1/C=C/O[C@@]2(C)Oc3c(C)c(O)c4c(O)c(c(/C=N/N5CCN(C)CC5)c(O)c4c3C2=O)NC(=O)/C(C)=C\C=C\[C@H](C)[C@H](O)[C@@H](C)[C@@H](O)[C@@H](C)[C@H](OC(C)=O)[C@@H]1C` [Rifampicin, rifampicin, reference compound], the minimal inhibitory concentration (MIC) came to 0.24 µg/mL in data set [1] (setting [4]) and 0.24 µM in data set [1] (setting [6]).

`CC[C@@H](CO)NCCN[C@@H](CC)CO` [ethambutol, reference compound]: the minimum inhibitory concentration (MIC) in data set [1] (setting [4]) was 7.64 µg/mL; in data set [1] (setting [6]), 7.64 µM.
